Literature values in patent publication US20040147613A1, “Use of neuroactive substances for the treatment of parkinsons disease and pharmaceutical combination” (priority 2001, published 2004).

How the values were obtained:
[1] = system: GABAergic axosomatic synapses in the medial prefrontal cortex; conditions: 4-month chronic treatment, rat
[2] = system: local synapse populations / central projections
central DA-receptors = conditions: foetal administrations

O=C(CCCN1CCC(O)(c2ccc(Cl)cc2)CC1)c1ccc(F)cc1 [haloperidol]
number of GABAergic axosomatic synapses in the medial prefrontal cortex [1]: dramatic rise in the number of GABAergic axosomatic synapses
sprouting of glutamatergic corticostriatal projections ([2]; 14-day chronic treatment): indications of transsynaptic sprouting of glutamatergic corticostriatal projections

CNCCCN1c2ccccc2CCc2ccccc21 [desipramine]
axonal sprouting of central projections ([2]; chronic treatment): induces axonal sprouting of central noradrenergic and probably also dopaminergic cortical projections

β-endorphin
effect on central DA-receptors (central DA-receptors): expression of the plastic capacities, typical of adult rats, of central DA-receptors ceases
